Data taken from patent US7910611B2, “Therapeutic agent for restenosis” (Kyowa Hakko Kirin Co., Ltd., priority 2005, dated 2011).
Counter-ions that a name gives are not always drawn.

How the values were obtained:
[1] = test system: normal human aortic smooth muscle cells; assay: Cell growth inhibition tests against human vascular smooth muscle cells (XTT); format: cell-based; conditions: for GI50: read-out: growth inhibitory activity in terms of the GI50 value (concentration of 50% growth inhibition), cultured 72 hours with test compound, XTT, absorbance at 490 nm
Procedure: Cell Growth Inhibition Tests Against Human Vascular Smooth Muscle Cells
As human vascular smooth muscle cells, normal human aortic smooth muscle cells (Cambrex, catalog No. C-2571) were used. HuMedia-SB2 basal medium (Kurabo Industries, Ltd., catalog No. KS-2150S) containing 5% fetal bovine serum (Kurabo Industries, Ltd., catalog No. KS-6150), 0.5 ng/mL human recombinant epidermal growth factor (Kurabo Industries, Ltd., catalog No. KS-6150), 2 ng/mL human recombinant basic fibroblast growth factor (Kurabo Industries, Ltd., catalog No. KS-6150), 5 μg/mL insulin (Kurabo Industries, Ltd., catalog number KS-6150), 50 μg/mL gentamycin (Kurabo Industries, Ltd., catalog No. KS-6150), and 50 ng/mL amphotericin B (Kurabo Industries, Ltd., catalog No. KS-6150) was used for cell culture. The cells were cultured at 37° C. in a 5% carbon dioxide atmosphere.
The normal human aortic smooth muscle cells (1000 cells/well) were seeded in each well of 96-well plates (Nunc, catalog No. 167008), and cultured overnight. Test compounds diluted stepwise were added, and the cells were further cultured for 72 hours (final volume: 100 μL/well). Fifty μL XTT labeling mixture of Cell Proliferation Kit II (XTT) (Roche Diagnostics, catalog No. 1465015) was added to each well, and the plates were incubated at 37° C. After 4 hours, absorbance at 490 nm (reference wavelength: 655 nm) was measured with a plate reader (Molecular Device, SpectraMax 340PC^384). Growth ratios of the cells in the wells treated with the test compound was calculated based on the growth ratio of the cells in the control well treated with solvent (dimethyl sulfoxide (DMSO)) for 72 hours, which was defined as 100%.

Row | Structure (SMILES) | GI50 [1] [µM] | melting point [°C] | inhibitory activity compared with the corresponding racemic mixture (Compound 12) ([1]; optically active compound versus racemic mixture)
1 | C=CS(=O)(=O)NCC1(c2ccccc2)SC(NC(=O)C(C)(C)C)=NN1C(=O)C(C)(C)C (stereo not shown) [Compound k, N-[4-(2,2-Dimethylpropionyl)-5-ethenesulfonylaminomethyl-5-phenyl-4,5-dihydro-1,3,4-thiadiazol-2-yl]-2,2-dimethylpropanamide] | < 10 | – | –
2 | CN(C)CCCS(=O)(=O)NCC1(c2ccccc2)SC(NC(=O)C(C)(C)C)=NN1C(=O)C(C)(C)C (single isomer, unassigned; (-)) [Compound n, (−)-N-[5-(3-Dimethylaminopropanesulfonylaminomethyl)-4-(2,2-dimethylpropionyl)-5-phenyl-4,5-dihydro-1,3,4-thiadiazol-2-yl]-2,2-dimethylpropanamide] | < 10 | 92 to 95 | –
3 | CCNCCS(=O)(=O)NCC1(c2ccccc2)SC(NC(=O)C(C)(C)C)=NN1C(=O)C(C)(C)C (single isomer, unassigned; (-)) [Compound l, (−)-N-[4-(2,2-Dimethylpropionyl)-5-(2-ethylaminoethanesulfonylaminomethyl)-5-phenyl-4,5-dihydro-1,3,4-thiadiazol-2-yl]-2,2-dimethylpropanamide] | < 10 | – | –
4 | CC(C)(C)C(=O)NC1=NN(C(=O)C(C)(C)C)C(CCNS(C)(=O)=O)(c2ccccc2)S1 (single isomer, unassigned; (-)) [Compound a, (−)-N-[4-(2,2-Dimethylpropionyl)-5-(2-methanesulfonylaminoethyl)-5-phenyl-4,5-dihydro-1,3,4-thiadiazol-2-yl]-2,2-dimethylpropanamide] | < 10 | – | –
5 | CC(C)(C)C(=O)NC1=NN(C(=O)C(C)(C)C)C(CCCC(=O)NCCO)(c2ccccc2)S1 (stereo not shown) [Compound o, 4-[3-(2,2-Dimethylpropionyl)-5-(2,2-dimethylpropionylamino)-2-phenyl-2,3-dihydro-1,3,4-thiadiazol-2-yl]-N-(2-hydroxyethyl)butanamide] | < 10 | – | –
6 | CC(C)(C)C(=O)N1N=C(N2CCCC2=O)SC1(CCNS(C)(=O)=O)c1ccccc1 (single isomer, unassigned; (-)) [Compound c, (−)-N-{2-[3-(2,2-Dimethylpropionyl)-5-(2-oxopyrrolidin-1-yl)-2-phenyl-2,3-dihydro-1,3,4-thiadiazol-2-yl]ethyl}methanesulfonamide] | – | 107 to 110 | –
7 | CCNCCS(=O)(=O)NCCC1(c2ccccc2)SC(NC(=O)C(C)(C)C)=NN1C(=O)C(C)(C)C (stereo not shown) [Compound i, N-{4-(2,2-Dimethylpropionyl)-5-[2-(2-ethylaminoethanesulfonylamino)-ethyl]-5-phenyl-4,5-dihydro-1,3,4-thiadiazol-2-yl}-2,2-dimethylpropanamide] | < 10 | – | –
8 | CC(C)C(=O)N1N=C(NC(=O)C(C)(C)C)SC1(CCNS(C)(=O)=O)c1ccccc1 (single isomer, unassigned; (-)) [Compound d, (−)-N-[4-Isobutyryl-5-(2-methanesulfonylaminoethyl)-5-phenyl-4,5-dihydro-1,3,4-thia-diazol-2-yl]-2,2-dimethylpropanamide] | < 10 | – | –
9 | CC(=O)N1N=C(N2CCCCC2=O)SC1(CCNS(C)(=O)=O)c1ccccc1 (single isomer, unassigned; (-)) [Compound h, (−)-N-{2-[3-Acetyl-5-(2-oxopiperidino)-2-phenyl-2,3-dihydro-1,3,4-thiadiazol-2-yl]ethyl}methanesulfonamide] | < 10 | 169 to 171 | –
10 | CC(=O)N1N=C(N2CCCC2=O)SC1(CCNS(C)(=O)=O)c1ccccc1 (stereo not shown) [Compound g, N-{2-[3-Acetyl-5-(2-oxopyrrolidin-1-yl)-2-phenyl-2,3-dihydro-1,3,4-thiadiazol-2-yl]-ethyl}methanesulfonamide] | – | 137 to 140 | –
11 | CCC(=O)N1N=C(NC(=O)C(C)(C)C)SC1(CCNS(C)(=O)=O)c1ccccc1 (single isomer, unassigned; (-)) [Compound b, (−)-N-[5-(2-Methanesulfonylaminoethyl)-5-phenyl-4-propionyl-4,5-dihydro-1,3,4-thiadiazol-2-yl]-2,2-dimethylpropanamide] | < 10 | – | –
12 | CCC(=O)N1N=C(N2CCCC2=O)SC1(CCNS(C)(=O)=O)c1ccccc1 (single isomer, unassigned; (-)) [Compound e, (−)-N-{2-[5-(2-Oxopyrrolidin-1-yl)-2-phenyl-3-propionyl-2,3-dihydro-1,3,4-thiadiazol-2-yl]ethyl}methanesulfonamide] | < 10 | 188 to 191 | –
13 | CC(=O)N1N=C(NC(=O)C(C)(C)C)SC1(CCNS(C)(=O)=O)c1ccccc1 (single isomer, unassigned; (-)) [Compound f, (−)-N-[4-Acetyl-5-(2-methanesulfonylaminoethyl)-5-phenyl-4,5-dihydro-1,3,4-thiadiazol-2-yl]-2,2-dimethylpropanamide] | – | 187 to 190 | –
14 | CC(C)(C)C(=O)NC1=NN(C(=O)C(C)(C)C)C(CN)(c2ccccc2)S1 (stereo not shown) (as salt: hydrochloride) [Compound j, N-[5-Aminomethyl-4-(2,2-dimethylpropionyl)-5-phenyl-4,5-dihydro-1,3,4-thiadiazol-2-yl]-2,2-dimethylpropanamide] | – | 175 to 182 | –
15 | CC(C)(C)C(=O)NC1=NN(C(=O)C(C)(C)C)C(CN)(c2ccccc2)S1 (stereo not shown) [Compound j, N-[5-Aminomethyl-4-(2,2-dimethylpropionyl)-5-phenyl-4,5-dihydro-1,3,4-thiadiazol-2-yl]-2,2-dimethylpropanamide] | < 10 | – | –
16 | CC(C)(C)C(=O)NC1=NN(C(=O)C(C)(C)C)C(CNS(=O)(=O)CCSCCN)(c2ccccc2)S1 (stereo not shown) [Compound 24, N-{5-[2-(2-Aminoethylsulfanyl)ethanesulfonylaminomethyl]-4-(2,2-dimethyl-propionyl)-5-phenyl-4,5-dihydro[1,3,4]thiadiazol-2-yl}-2,2-dimethyl-propionamide] | < 10 | – | –
17 | CN(C)CCS(=O)(=O)NCC1(c2ccccc2)SC(NC(=O)C(C)(C)C)=NN1C(=O)C(C)(C)C (single isomer, unassigned; (-)) [Compound m, (−)-N-[5-(2-Dimethylaminoethanesulfonylaminomethyl)-4-(2,2-dimethylpropionyl)-5-phenyl-4,5-dihydro-1,3,4-thiadiazol-2-yl]-2,2-dimethylpropanamide] | < 10 | 101 to 104 | more potent inhibitory activities
